Reference: article PMC9268305, “The Pharmacokinetics in Mice and Cell Uptake of Thymus Immunosuppressive Pentapeptide Using LC-MS/MS Analysis” (Molecules, 2022)
“Also recorded” adds a separate entry of the source. Where a SMILES comes first, the peptide text is derived from it. The star is where a group is joined. FITC = O=C1OC2(c3ccc(O)cc3Oc3cc(O)ccc32)c2ccc(NC(=S)*)cc21; Ahx = NCCCCCC(=O)O

Legend:
RBL-2H3 cells [1] = test: Confocal visualization of cellular localization of FITC-TIPP; type: cell-based, rat; settings: confocal microscope
Protocol: RBL-2H3 cells (4 × 10^4) were seeded in a 35 mm confocal dish and treated with 367 μg/mL FITC-TIPP for 0, 5, 10, 20, 30, 40, and 60 min, respectively. Then, the cells were fixed with 4% paraformaldehyde solution for 10 min and permeabilized with 0.1% Triton-100 for 5 min, which was followed by nuclear staining in a dark place with Hoechst 33342 for 5 min. Finally, the cells were washed, stained with DiI dye solution for 10 min, rinsed with PBS three times, and analyzed with a confocal microscope.

RBL-2H3 cells [2] = test: Uptake of TIPP in RBL-2H3 cells by LC-MS/MS (lysates, supernatants, final rinse)
Protocol: (§1) RBL-2H3 cells were obtained from the Cell Resource Center of Shanghai Institutes for Biological Sciences (Shanghai, China) and cultured in complete MEM containing 15% heat-inactivated FBS in a 37 °C incubator (5% CO2 and 95% air). […] To prepare final cell rinse samples, the cells were removed, the supernatant was rinsed with 1 mL of PBS five times, and 90 μL of the final cell rinse was collected and mixed with 10 μL of S4 solution (3 μg/mL) for chromatographic analysis directly. For the preparation of cell lysate samples, the cells (about 10^6 cells) were lysed with 130 μL of RIPA buffer for 30 min on ice, and 100 μL of the cell lysate was collected for sample pre-processing following Section 4.5.1.
(§2) RBL-2H3 cells were seeded in a 35 mm diameter dish at 8 × 10^5 cells and treated with 200 μg/mL TIPP for different durations (5 min, 10 min, 20 min, 30 min, 40 min, 1 h, 3 h, 6 h, 12 h, and 24 h). Then, the cells were subjected to the pre-processing procedures to prepare cell lysates, cell culture supernatants and the final cell rinse samples (Section 4.5.2). In addition, to study TIPP intracellular degradation, the cells were incubated with TIPP for 40 min, which was followed by incubation with TIPP-free medium for 10, 20, 30, 40, and 60 min, respectively. The cell lysates were then harvested at the above time points and pre-processed as presented in Section 4.5.2.

RBL-2H3 cells [3] = system: RBL-2H3 cells
Protocol: as §1, §2

[4] = Elimination of TIPP after intravenous injection in mice (data not shown); type: in vivo
[5] = Stability of TIPP in processed murine plasma samples (LC-MS/MS validation); type: in vitro ADME, mouse; settings: compared to nominal concentration, mean ± SD, n = 3, in % (unit assumed)
Protocol: The stability of TIPP in plasma samples was investigated under different conditions. To evaluate autosampler stability, long-term stability, and short-term stability, up to three replicates of LQC and HQC plasma samples were evaluated when the samples were stored at room temperature for 4 h, at 4 °C for 24 h, and at −80 °C for 4 weeks, respectively. Freeze–thaw stability was also assessed in three cycles from −80 to 25 °C. Concentrations were determined using a TIPP calibrator of the respective validation day. Obtained results were compared to nominal concentrations to determine the stability.

[6] = mouse, in vivo, sc, 50 mg/kg
Protocol: (§3) Whole blood was collected from inner canthus into a tube containing ethylenediaminetetraacetic acid (EDTA) and centrifuged at 5000 rcf for 3 min. Subsequently, 10 μL of plasma samples were diluted with 90 μL TDW. The sample processing process is then executed, and the diluted samples were mixed with 10 μL of S4 solution (3 μg/mL) and 300 μL of 2% FA-ACN in a tube containing 20 μL of DTT solution (25 mg/mL). After centrifugation at 15,000 rcf for 10 min, 300 μL supernatant was transferred to a new tube containing 500 μL of DCM. The mixture was vortexed and centrifuged at 15,000 rcf for 10 min, and the aqueous layer was loaded into the LC-MS/MS system.
(§4) After 4 h fasting (ad libitum water intake), mice were subcutaneously injected with 50 mg/kg TIPP. At 0.5, 1, 2, 5, 10, 15, 20, and 40 min post administration (eight mice at each time points), blood samples were taken from an inner canthus into tubes containing Na2·EDTA and centrifuged at 5000 rcf for 10 min to obtain plasma. All samples were processed as described in Section 4.5.1 immediately.
(§5) PK parameters were calculated as mean ± standard deviation (SD). The Cmax and the time to reach Tmax were calculated based on the highest concentration and the corresponding time point, and t1/2 was calculated from C0 to C40. The area under the curve during the 40 min window (AUC0→40) and the extrapolated value (AUC0→∞) were calculated using the trapezoidal rule, and the elimination rate and concentration at 40 min were extrapolated from 40 min to infinity. The CL/F and Vd/F were calculated using the first-order one-compartment model.
(§6) Analyst® 1.5 software (AB SCIEX) was used for HPLC-MS/MS data processing. A non-compartmental model was employed to fit the PK of TIPP in mice plasma using DAS 2.0 software. […] Results were compared using t test or one-way analysis of variance, which was followed by Dunnett’s multiple comparisons test, with p < 0.05 considered significant.

[7] = Sample-preparation stability/recovery of TIPP in water and murine plasma, with stabilizers; type: in vitro ADME, mouse
Protocol: TIPP stock solutions were separately diluted in TDW or murine plasma at a concentration of 1 μg/mL. Samples (10 μL) were subjected to protein precipitation either immediately or after 10 min incubation at room temperature (around 25 °C). A series of reagents were used for protein precipitation, including MeOH (300 μL) and 2% FA-ACN of different volumes (300, 140, 100, and 70 μL). After brief vortex, the samples were centrifuged at 15,000 rcf at 4 °C for 10 min, and the supernatants were collected for chromatographic analysis. In order to increase the signal intensity of highly water-soluble TIPP in organic solvents, a group of liquid–liquid extraction was carried out to separate the aqueous phase from the organic phase. After treating with 300 μL of 2% FA-ACN, the resulting supernatants (300 μL) were mixed with 500 μL of DCM for backwashing. […] After sample preparation, the processed samples were stored at −80 °C until analysis. Before sampling, the prepared sample was thawed, vortexed, and placed in the autosampler.
To choose the optimal stabilizer, the performance of DTT (30 mg/mL), L-AA (10 mg/mL), and PMSF (50 μg/mL) was evaluated. Plasma (90 μL) was mixed with each stabilizer (20 μL), and TIPP (10 μL, 5 μg/mL). The samples were subjected to protein precipitation either immediately or after 10 min incubation at room temperature. For protein precipitation, the samples added with 10 μL of S4 (3 μg/mL) were mixed with 300 μL of 2% FA-ACN and processed as discussed in Section 4.3.1. The aqueous layer was collected for chromatographic analysis. The recovery of TIPP with each stabilizer was determined. Moreover, the stabilizing effect of DTT was further evaluated with different concentrations (2.5, 5, 10, 20, 25, and 40 mg/mL), following the above protocol.

[8] = PK of TIPP via subcutaneous injection in mice; settings: female, BALB/c, mouse, plasma, sc, 50 mg/kg; for MRT: mice, 50 mg/kg subcutaneous, mean ± SD, n = 8
Protocol: as §3, §4, §5, §6

[9] = -SH group substituted with the -OH group; cited from earlier work
Excerpt: The pharmacokinetic properties in animals and its action mechanism also need to be studied using reliable, accurate, and sensitive methods in order to develop TIPP into a new drug. Short peptides can be analyzed using fluorescence labeling, immunoassay, and liquid chromatography-tandem mass spectrometry (LC-MS/MS). Although the visualization and quantification of fluorescently labeled peptides are widely used, there are still some drawbacks. One such flaw is that fluorescent labeling might change the structure of small molecules, resulting in the alteration of physical and chemi ...

## C[C@H](NC(=O)CCCCCNC(=S)Nc1ccc2c(c1)C(=O)OC21c2ccc(O)cc2Oc2cc(O)ccc21)C(=O)N[C@@H](CCC(=O)O)C(=O)N[C@@H](Cc1c[nH]c2ccccc12)C(=O)N[C@@H](CS)C(=O)N1CCC[C@H]1C(=O)O [FITC-TIPP] ({FITC-Ahx}-AEWCP-OH)
RBL-2H3 cells [1]; 367 μg/mL FITC-TIPP (same molar concentration as 200 μg/mL TIPP), fluorescence
  Co-localization of FITC-TIPP with RBL-2H3 cells: co-localized with RBL-2H3 cells at 10 min
RBL-2H3 cells [1]; 367 μg/mL FITC-TIPP, after 30 min, Hoechst 33342 and DiI staining
  Fluorescent signal of FITC-TIPP in cells over time: remained steady after 30 min with significant intranuclear enrichment

## C[C@H](N)C(=O)N[C@@H](CCC(=O)O)C(=O)N[C@@H](Cc1c[nH]c2ccccc12)C(=O)N[C@@H](CS)C(=O)N1CCC[C@H]1C(=O)O (H-AEWCP-OH)
RBL-2H3 cells [2]; 200 μg/mL TIPP, 20 min, cells rinsed five times with PBS, RIPA lysate, LC-MS/MS, n = 3
  Intracellular concentration of TIPP (cell lysate) at 20 min: 24.57 ± 4.53 ng/mL
RBL-2H3 cells [2]; 200 μg/mL TIPP, MEM with 15% FBS, 37 °C, 12 h, LC-MS/MS, n = 3
  Concentration of TIPP in cell culture supernatant at 12 h: below the detection limit
RBL-2H3 cells [2]; 200 μg/mL TIPP, all PBS rinse samples, detection limit, LC-MS/MS
  Concentration of TIPP in PBS rinse samples: < 0.1 ng/mL
RBL-2H3 cells [2]; 200 μg/mL TIPP, fifth PBS rinse, LC-MS/MS
  Residual TIPP in the final cell rinse PBS (in words): No residual TIPP was detected
RBL-2H3 cells [2]; 200 μg/mL TIPP, from 30 min onwards, RIPA lysate, LC-MS/MS, n = 3
  Intracellular concentration of TIPP (cell lysate), plateau: 38.62 ± 2.47 ng/mL
RBL-2H3 cells [2]; 40 min with 200 μg/mL TIPP, then TIPP-free medium for 30 min, cell lysates
  Intracellular TIPP about 30 min after substituting TIPP-free medium (in words): almost eliminated; also recorded: decreased to near LLOQ
RBL-2H3 cells [3]
  Intracellular t1/2 of TIPP: 5.596 min
[4]
  Elimination after intravenous injection: rapid elimination
[5]; HQC 4000 ng/mL, 4 weeks at −80 °C
  Stability in murine plasma, 4 weeks at −80 °C, HQC: 90.70 ± 0.12
[5]; HQC 4000 ng/mL, 4 h at room temperature
  Stability in murine plasma, 4 h at room temperature, HQC: 98.02 ± 0.04
[5]; HQC 4000 ng/mL, autosampler 24 h at 4 °C
  Stability in murine plasma, 24 h at 4 °C, HQC: 99.35 ± 0.84
[5]; HQC 4000 ng/mL, three freeze-thaw cycles at −80–25 °C
  Stability in murine plasma, three freeze-thaw cycles, HQC: 106.00 ± 0.16
[5]; LQC 50 ng/mL, 4 weeks at −80 °C
  Stability in murine plasma, 4 weeks at −80 °C, LQC: 90.70 ± 1.61
[5]; LQC 50 ng/mL, autosampler 24 h at 4 °C
  Stability in murine plasma, 24 h at 4 °C, LQC: 103.64 ± 2.00
[5]; LQC 50 ng/mL, three freeze-thaw cycles at −80–25 °C
  Stability in murine plasma, three freeze-thaw cycles, LQC: 94.23 ± 0.02
[6]
  CL/F (apparent clearance rate): 380 ± 87 L/h/kg
[7]; 1 μg/mL in TDW, 10 min at room temperature (around 25 °C), protein precipitation with only organic reagents, LC-MS/MS intensity
  Stability of TIPP in aqueous solution: remained stable
[7]; 1 μg/mL in murine plasma, 10 min at room temperature (around 25 °C), protein precipitation with only organic reagents, LC-MS/MS intensity
  Stability of TIPP in plasma without stabilizer: intensity decreased significantly
[7]; murine plasma, 20 mg/mL DTT, immediately or after 10 min at room temperature, LC-MS/MS, n = 3
  Average recovery of TIPP in plasma with DTT as stabilizer: higher than 95%
[8]
  AUC(0-inf): 136 ng·h/mL
  AUC(0-t): 133 ng·h/mL
  Cmax: 623 ± 67.1 ng/mL
  Tmax: 10 min
  Vd/F: 54.4 ± 20.9 L/kg
  half-life: 5.99 ± 1.82 min
  level at 40 min: ~20 ng/mL
[8]; MRT(0–t)
  MRT: 11.3 min
[8]; MRT(0–∞)
  MRT: 12.5 min

## AEWSP [S4, analog of TIPP (AEWSP), used as the internal standard of the LC-MS/MS method]
[9]
  Stability compared with TIPP: significantly improved
